One compound from US6461997B1, “Triazole sulfones having herbicidal activity” (Monsanto Technology LLC, priority 1999, dated 2002) can be followed below.

One assay concerns ECHCG (barnyardgrass). Description: Pre-emergence herbicidal activity, warm season. It counts as in vivo, Echinochloa crus-galli. The note with it: GR80 = lowest tested rate (300, 100, 30, 10 g/ha) with 80% or greater inhibition; approx. 14 days after treating; 30/21° C. Put shortly: (§1)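 GR80 values derive from percent inhibition relative to untreated plants, read roughly 14 days after sowing and pre-emergence soil-surface treatment (compound in 50:50 acetone/water; rates typically 10, 30, 100, 300 g/ha). Warm-season weeds grew at 30/21° C day/night, cool-season ones at 18/13° C; an asterisk marks activity without reaching 80% at the highest rate.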

For assay [1], the system named is BRAPP (broadleaf signalgrass). Briefly: Pre-emergence herbicidal activity, warm season. It is filed as in vivo, Brachiaria platyphylla. The note with it: GR80 = lowest tested rate (300, 100, 30, 10 g/ha) with 80% or greater inhibition; approx. 14 days after treating; 30/21° C. The gist of the method: as §1
Assay [2] concerns LAMPU (purple deadnettle). Description: Pre-emergence herbicidal activity, cool season. It is filed as in vivo, Lamium purpureum. The note with it: lowest tested rate with 80% or greater inhibition; rates 300, 100, 30, 10 g/ha; about 14 days. Put shortly:
as §1

In another assay the test system is AVEFA (wild oat). Description: Pre-emergence herbicidal activity, cool season. It is filed as in vivo, Avena fatua. The note with it: GR80 = lowest tested rate (300, 100, 30, 10 g/ha) with 80% or greater inhibition; approx. 14 days after treating; 18/13° C. As for the experimental part: (§2) Tables 5 to 8 summarize results of tests conducted as described below to determine the pre-emergence herbicidal activity, in the form of a GR80 value, of illustrative compounds of this invention. […] Compounds of the invention were typically applied at rates of 300, 100, 30, and 10 g/ha. Where herbicidal activity was evident but 80% inhibition was not achieved at the highest rate tested, an asterisk (*) is shown in the following tables.
(§3) The pre-emergence tests were conducted by the following procedure. Topsoil was sieved to pass through a 1.27 cm screen. Fertilizer was added to the topsoil and the mixture was then sterilized by heating. The topsoil mixture was placed in a pot and compacted to a depth of 1.0 to 1.25 cm from the top of the pot. Seeds of each of several monocotyledonous and dicotyledonous annual plant species were placed on top of the soil. Additional soil was subsequently placed over the seeds to level-fill the pot. A known amount of each test compound dissolved or suspended in an appropriate organic solvent was diluted with a 50:50 mix of acetone and water and applied to the surface of the soil. After treatment the plants were placed in a greenhouse where they received 0.64 cm of overhead irrigation. All subsequent watering consisted of a light overhead mist and/or subirrigation as needed for germination and growth. Tables 5 and 6 below relate to warm season plant species which were placed after pre-emergence treatment in a greenhouse with a 30/21° C. day/night temperature regime. Tables 7 and 8 below relates to cool season plant species placed after pre-emergence treatment in a greenhouse or growth chamber with an 18/13° C. day/night temperature regime.
(§4) Approximately 14 days after planting and treating, the plants were observed and herbicidal efficacy recorded as percent inhibition by comparison with untreated plants.
(§5) The plant species usually regarded as weeds which were utilized in the tests are identified in the tables below according to the following legend, in which “d” indicates a dicotyledonous species and “m” a monocotyledonous species. All monocotyledonous species included in the tests herein are grasses.

The subject of the next assay is POROL (common purslane). Briefly: Pre-emergence herbicidal activity, warm season. It counts as in vivo, Portulaca oleracea. The note with it: GR80 = lowest tested rate (300, 100, 30, 10 g/ha) with 80% or greater inhibition; approx. 14 days after treating; 30/21° C. The gist of the method: as §1
Another assay concerns SASKR (russian thistle). Briefly: Pre-emergence herbicidal activity, cool season. The note with it: lowest tested rate with 80% or greater inhibition; rates 300, 100, 30, 10 g/ha; about 14 days. It is filed as in vivo, Salsola kali. Put shortly:
as §1

The next assay relates to POLCO (wild buckwheat). Briefly: Pre-emergence herbicidal activity, cool season. It is filed as in vivo, Polygonum convolvulus. The note with it: lowest tested rate with 80% or greater inhibition; rates 300, 100, 30, 10 g/ha; about 14 days. The gist of the method:
(§6)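 Pre-emergence soil-surface spray; rates 300/100/30/10 g/ha; acetone:water 50:50 diluent. Warm-season species (PANMI, DIGSA) grown at 30/21 °C, cool-season species (ALOMY, POLCO) at 18/13 °C. Inhibition scored ~14 d after treatment versus untreated controls → GR80.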

In another assay the test system is PANDI (fall panicum). Description: Pre-emergence herbicidal activity, warm season. It is filed as in vivo, Panicum dichotomiflorum. The note with it: GR80 = lowest tested rate (300, 100, 30, 10 g/ha) with 80% or greater inhibition; approx. 14 days after treating; 30/21° C. Put shortly: as §1
The test system of assay [3] is GALAP (catchweed bedstraw). Briefly: Pre-emergence herbicidal activity, cool season. It is filed as in vivo, Galium aparine. The note with it: lowest tested rate with 80% or greater inhibition; rates 300, 100, 30, 10 g/ha; about 14 days. The gist of the method: as §1
For assay [4], the system named is VERPE (creeping speedwell). Description: Pre-emergence herbicidal activity, cool season. The note with it: lowest tested rate with 80% or greater inhibition; rates 300, 100, 30, 10 g/ha; about 14 days. It counts as in vivo, Veronica persicaria. The gist of the method: as §1
The next assay has as its system STEME (common chickweed). Briefly: Pre-emergence herbicidal activity, cool season. The note with it: lowest tested rate with 80% or greater inhibition; rates 300, 100, 30, 10 g/ha; about 14 days. It is filed as in vivo, Stellaria media. The gist of the method: as §1
The test system of assay [5] is AGSST (creeping bentgrass). Description: Pre-emergence herbicidal activity, cool season. It is filed as in vivo, Agrostis stolonifera. The note with it: GR80 = lowest tested rate (300, 100, 30, 10 g/ha) with 80% or greater inhibition; approx. 14 days after treating; 18/13° C. The gist of the method: as §1
The test system of assay [6] is PANMI (wild proso millet). Briefly: Pre-emergence herbicidal activity, warm season. It counts as in vivo, Panicum miliaceum. The note with it: GR80 = lowest tested rate (300, 100, 30, 10 g/ha) with 80% or greater inhibition; approx. 14 days after treating; 30/21° C. The gist of the method: as §6
In assay [7] the test system is SORHA (johnsongrass (seedling)). Description: Pre-emergence herbicidal activity, warm season. It counts as in vivo, Sorghum halepense. The note with it: GR80 = lowest tested rate (300, 100, 30, 10 g/ha) with 80% or greater inhibition; approx. 14 days after treating; 30/21° C. Put shortly:
as §1

Another assay concerns SETVI (green foxtail). Briefly: Pre-emergence herbicidal activity, cool season. It counts as in vivo, Setaria viridis. The note with it: GR80 = lowest tested rate (300, 100, 30, 10 g/ha) with 80% or greater inhibition; approx. 14 days after treating; 18/13° C. The gist of the method:
as §1

A further assay has as its system SINAR (wild mustard). Description: Pre-emergence herbicidal activity, cool season. It is filed as in vivo, Sinapis arvensis. The note with it: lowest tested rate with 80% or greater inhibition; rates 300, 100, 30, 10 g/ha; about 14 days. Put shortly:
as §1

Assay [8] has as its system CHEAL (common lambsquarters). Description: Pre-emergence herbicidal activity, warm season. It counts as in vivo, Chenopodium album. The note with it: GR80 = lowest tested rate (300, 100, 30, 10 g/ha) with 80% or greater inhibition; approx. 14 days after treating; 30/21° C. Put shortly:
as §1

The subject of the next assay is SORVU (shattercane). Briefly: Pre-emergence herbicidal activity, warm season. It counts as in vivo, Sorghum vulgare. The note with it: GR80 = lowest tested rate (300, 100, 30, 10 g/ha) with 80% or greater inhibition; approx. 14 days after treating; 30/21° C. The gist of the method:
as §1

The next assay deals with SETFA (giant foxtail). Description: Pre-emergence herbicidal activity, warm season. It is filed as in vivo, Setaria faberi. The note with it: GR80 = lowest tested rate (300, 100, 30, 10 g/ha) with 80% or greater inhibition; approx. 14 days after treating; 30/21° C. The gist of the method:
as §1

In another assay the test system is CONAR (field bindweed). Description: Pre-emergence herbicidal activity, warm season. The note with it: GR80 = lowest tested rate (300, 100, 30, 10 g/ha) with 80% or greater inhibition; approx. 14 days after treating; 30/21° C. It is filed as in vivo, Convolvulus arvensis. As for the experimental part:
as §2, §3, §4, §5

For the compound `CCSC(F)(F)S(=O)(=O)c1ncn(C(=O)N(C)C)n1` [Example 49], the “Pre-emergence activity (GR80) ECHCG” value in the assay with ECHCG (barnyardgrass) came out at 300 g/ha. Moreover, the “Pre-emergence activity (GR80) BRAPP” value in [1] stood at 300 g/ha. In addition, in [2], the “Pre-emergence activity GR80, LAMPU” value is given as 300 g/ha. Further, in the assay with AVEFA (wild oat), the “Pre-emergence activity (GR80) AVEFA” value is listed as 300 g/ha. Further, in the assay on POROL (common purslane), the “Pre-emergence activity (GR80) POROL” value amounted to 300 g/ha. Further, the “Pre-emergence activity GR80, SASKR” value in the assay on SASKR (russian thistle) was “[empty]”. For the same compound, in the assay with POLCO (wild buckwheat), the “Pre-emergence activity GR80, POLCO” value was “[empty]”. In addition, the “Pre-emergence activity (GR80) PANDI” value with PANDI (fall panicum) was 300 g/ha. Further, the “Pre-emergence activity GR80, GALAP” value in assay [3] came to 300 g/ha. Moreover, in assay [4], the “Pre-emergence activity GR80, VERPE” value came to 300 g/ha. For the same compound, the “Pre-emergence activity GR80, STEME” value with STEME (common chickweed) is 300 g/ha. Besides, the “Pre-emergence activity (GR80) AGSST” value in [5] was determined as 100 g/ha. Also, the “Pre-emergence activity (GR80) PANMI” value in [6] is listed as 300 g/ha. In addition, the “Pre-emergence activity (GR80) SORHA” value in assay [7] came to 300 g/ha. Besides, the “Pre-emergence activity (GR80) SETVI” value in the assay on SETVI (green foxtail) came to 300 g/ha. Further, in the assay on SINAR (wild mustard), the “Pre-emergence activity GR80, SINAR” value was 300 g/ha. For the same compound, in assay [8], the “Pre-emergence activity (GR80) CHEAL” value worked out at 300 g/ha. For the same compound, the “Pre-emergence activity (GR80) SORVU” value in the assay on SORVU (shattercane) stood at 300 g/ha. Also, the “Pre-emergence activity (GR80) SETFA” value in the assay on SETFA (giant foxtail) came to 300 g/ha. Moreover, the “Pre-emergence activity (GR80) CONAR” value in the assay with CONAR (field bindweed) is reported as 300 g/ha.
